The term IC50 denotes the concentration needed to halve the response being measured.

What all share (assay type): biochemical
The target of test [1] is T1, N-acylethanolamine acid amidase (NAAA) (Rattus norvegicus, UniProt Q5KTC7).
T1 construct: extracted recombinant rat NAAA (rNAAA)
T1 sequence (Q5KTC7 34-130): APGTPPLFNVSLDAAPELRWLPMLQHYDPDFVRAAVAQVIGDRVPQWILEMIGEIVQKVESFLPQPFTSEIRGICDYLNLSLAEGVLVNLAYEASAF
T1 sequence (Q5KTC7 131-362): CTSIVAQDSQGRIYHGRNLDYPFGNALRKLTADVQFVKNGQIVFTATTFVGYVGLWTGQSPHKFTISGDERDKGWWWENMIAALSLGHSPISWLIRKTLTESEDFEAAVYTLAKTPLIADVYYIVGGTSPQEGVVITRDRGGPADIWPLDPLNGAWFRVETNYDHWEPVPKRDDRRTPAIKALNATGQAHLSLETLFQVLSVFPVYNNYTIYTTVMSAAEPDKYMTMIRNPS
Description: enzyme activity assay with extracted recombinant rNAAA, heptadecenoylethanolamide substrate, concentration-response.

The target in test [2] is T2, N-acylethanolamine acid amidase (NAAA) (Homo sapiens, UniProt Q02083).
T2 sequence (Q02083 29-125): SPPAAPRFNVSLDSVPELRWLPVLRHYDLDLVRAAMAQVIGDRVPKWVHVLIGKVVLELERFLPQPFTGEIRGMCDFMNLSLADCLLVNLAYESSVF
T2 sequence (Q02083 126-359): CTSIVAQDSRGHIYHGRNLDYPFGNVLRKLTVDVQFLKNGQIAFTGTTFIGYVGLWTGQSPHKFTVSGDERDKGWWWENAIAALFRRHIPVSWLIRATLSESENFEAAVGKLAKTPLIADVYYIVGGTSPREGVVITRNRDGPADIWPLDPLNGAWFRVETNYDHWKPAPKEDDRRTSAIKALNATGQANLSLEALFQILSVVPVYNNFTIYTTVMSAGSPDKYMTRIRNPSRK
Description: enzyme activity assay, IC50.

The target in a further test is T3, FAAH (Rattus norvegicus, UniProt P97612).
T3 construct: extracted recombinant rat FAAH (rFAAH)
T3 sequence (P97612 1-579): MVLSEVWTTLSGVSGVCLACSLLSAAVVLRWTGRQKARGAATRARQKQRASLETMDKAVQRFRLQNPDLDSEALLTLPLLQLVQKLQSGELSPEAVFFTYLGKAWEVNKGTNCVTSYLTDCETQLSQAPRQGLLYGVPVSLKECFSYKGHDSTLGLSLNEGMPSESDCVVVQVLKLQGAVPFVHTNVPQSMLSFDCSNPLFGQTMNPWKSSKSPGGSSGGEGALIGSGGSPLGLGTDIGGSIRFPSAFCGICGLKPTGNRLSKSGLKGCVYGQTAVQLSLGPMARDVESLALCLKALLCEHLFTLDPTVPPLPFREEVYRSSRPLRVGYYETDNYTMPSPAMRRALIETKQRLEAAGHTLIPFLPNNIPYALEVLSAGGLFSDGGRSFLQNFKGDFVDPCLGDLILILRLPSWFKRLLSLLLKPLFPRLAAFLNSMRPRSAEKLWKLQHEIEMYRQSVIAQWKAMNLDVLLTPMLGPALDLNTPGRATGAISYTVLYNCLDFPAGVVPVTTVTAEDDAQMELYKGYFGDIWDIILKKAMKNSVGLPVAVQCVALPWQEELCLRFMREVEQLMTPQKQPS
Description: enzyme activity assay with extracted recombinant rFAAH, anandamide substrate (selectivity counter-assay).

With `O=C(CCCCCc1ccccc1)N1CCOC1=O` [F96, 3-(6-phenylhexanoyl)oxazolidin-2-one], the half-inhibitory concentration (IC50) in test [1] was found to be 269 ± 22.4 nM; in test [2], 269 ± 43.8 nM; on FAAH, 42000 ± 1920 nM.

For the origin of these results see PMC4550851, “Potential analgesic effects of a novel N-acylethanolamine acid amidase inhibitor F96 through PPAR-α” (Scientific Reports, 2015).
